Experimental findings from patent publication US20100119599A1 (ARCHER PHARMACEUTICALS, INC., priority 2006, published 2010) are described below.

In one test the test system is Aβ1-40. Kind of test: Measurement of Aβ1-40 in culture medium of 7W WT APP751 CHO cells by ELISA.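 As to all read-outs here: 5 µM test compound but RI-coded compounds at 10 µM for 24 hours.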 The class given is cell-based, Chinese hamster. The note with it: for activity at 5 µM: Cricetulus griseus, 5 μM test compound, CHO cells stably transfected with human APP751, culture medium, ELISA, control DMSO; for Aβ1-40 (% of control): CHO cells that overexpress APP751, zero = below the detection limit of the assay. A general note: An ELISA detects its analyte on a solid surface through an enzyme-linked reagent.

A further test deals with Aβ1-42. The test can be described thus: Measurement of Aβ1-42 in culture medium of 7W WT APP751 CHO cells by ELISA.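 As to Aβ1-42 (% of control): 5 µM test compound but RI-coded compounds at 10 µM for 24 hours.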 The following applies: for activity at 5 µM: Cricetulus griseus, 5 μM test compound, CHO cells stably transfected with human APP751, culture medium, ELISA, control DMSO; for Aβ1-42 (% of control): CHO cells that overexpress APP751, zero = below the detection limit of the assay. The class given is cell-based, Chinese hamster.

[1] abbreviates: Table 1, 0 = no detectable amount.
Where [2] appears, read: Table 1, 0 = no detectable amount, read-out: Aβ1-42 (% of control).

Like-named read-outs stand apart in the source and are kept apart here.

On to `CCc1ccc(C2C(C(=O)OC3CCCCC3)=C(C)NC3=C2C(=O)CC(c2ccccc2)C3)cc1` (centres unmarked) [ST013389, cyclohexyl 4-(4-ethylphenyl)-2-methyl-5-oxo-7-phenyl-1,4,6,7,8-pentahydroquinoline-3-carboxylate], for which the activity at 5 µM with Aβ1-40 (setting [1]) came out at 37.4%; in the test on Aβ1-42 (setting [2]) it was 94.4%.

`CC1=C(C(=O)Nc2ccccc2)C(c2cccs2)C(C#N)=C(SCC(=O)Nc2cccc(F)c2)N1` (centres unmarked) [RI_13]: the “Aβ1-40 (% of control)” value with Aβ1-40 is 53.8 % of control. Moreover, in the test with Aβ1-42, the “Aβ1-42 (% of control)” value is on record as 41.3 % of control.

Take `N#CC1=C(N)NC(SCC(N)=O)=C(C#N)C1c1cccs1` (centres unmarked) [RI_4]: in the test on Aβ1-40, the “Aβ1-40 (% of control)” value was 92.2 % of control. The “Aβ1-42 (% of control)” value in the test with Aβ1-42 is 64.7 % of control.

As to `CC1=C(C(=O)OCc2ccccc2)C(c2cccc(Cl)c2Cl)C2=C(CC(C)(C)CC2=O)N1` (centres unmarked) [ST013230, phenylmethyl 4-(2,3-dichlorophenyl)-2,7,7-trimethyl-5-oxo-1,4,6,7,8-pentahydroquinoline-3-carboxylate], the figures for the activity at 5 µM in the test with Aβ1-40 (setting [1]) and in the test with Aβ1-42 (setting [2]) were 0% and 69.5%, respectively.

Regarding `Cc1cccc(C(C)C)c1NC(=O)CSc1nc(C)c(C(=O)Nc2ccccc2)c(-c2cccs2)c1C#N` [RI_36], the “Aβ1-40 (% of control)” value with Aβ1-40 was 35.9 % of control. The “Aβ1-42 (% of control)” value in the test on Aβ1-42 is listed as 72.9 % of control.

For `COC(=O)C1=C(C)NC2=C(C(=O)CC(c3ccc(OC)c(OC)c3)C2)C1c1cc(OC)c(OC)c(OC)c1` (centres unmarked) [ST024574, methyl 7-(3,4-dimethoxyphenyl)-2-methyl-5-oxo-4-(3,4,5-trimethoxyphenyl)-1,4,6,7,8-pentahydroquinoline-3-carboxylate], the figures for the activity at 5 µM in the test with Aβ1-40 (setting [1]) and in the test with Aβ1-42 (setting [2]) were 65.3% and 83.6%, respectively.

Turning to `CCOc1ccc(NC(=O)CSC2=C(C#N)C(c3cccs3)C(C(=O)Nc3ccccc3)=C(C)N2)cc1` (centres unmarked) [RI_9], the “Aβ1-40 (% of control)” value in the test with Aβ1-40 was 56.3 % of control. Also, the “Aβ1-42 (% of control)” value with Aβ1-42 is recorded as 27.6 % of control.

For `COC(=O)C1=C(C)NC(C)=C(C(=O)OC)C1c1cccc(Br)c1` [ST208634, methyl 4-(3-bromophenyl)-5-(methoxycarbonyl)-2,6-dimethyl-1,4-dihydropyridine-3-carboxylate], the “Aβ1-40 (% of control)” value with Aβ1-40 is 80.5 % of control. Further, the “Aβ1-42 (% of control)” value in the test with Aβ1-42 is recorded as 32.51 % of control.

Turning to `CCCOC(=O)C1=C(C)NC2=C(C(=O)CC(c3ccccc3)C2)C1c1ccc(CC)cc1` (centres unmarked) [ST017264, propyl 4-(4-ethylphenyl)-2-methyl-5-oxo-7-phenyl-1,4,6,7,8-pentahydroquinoline-3-carboxylate], the activity at 5 µM in the test with Aβ1-40 (setting [1]) was found to be 29.7%; in the test with Aβ1-42 (setting [2]), 48.2%.

Take `CCSCCOC(=O)C1=C(C)NC2=C(C(=O)CC(c3ccccc3)C2)C1c1ccc(Br)cc1` (centres unmarked) [ST017201, 2-ethylthioethyl 4-(4-bromophenyl)-2-methyl-5-oxo-7-phenyl-1,4,6,7,8-pentahydroquinoline-3-carboxylate]: the activity at 5 µM came to 57.5% in the test with Aβ1-40 (setting [1]) and 85.2% in the test with Aβ1-42 (setting [2]).

`CCC(C)OC(=O)C1=C(C)NC2=C(C(=O)CC(c3ccc(Cl)cc3)C2)C1c1ccc(Cl)c(Cl)c1` (centres unmarked) [ST017095, methylpropyl 4-(3,4-dichlorophenyl)-7-(4-chlorophenyl)-2-methyl-5-oxo-1,4,6,7,8-pentahydroquinoline-3-carboxylate]: the activity at 5 µM in the test with Aβ1-40 (setting [1]) is 61.3%; in the test with Aβ1-42 (setting [2]) it was 37.1%.

Regarding `CC1=C(C(=O)Nc2ccccc2)C(c2cccs2)C(C#N)=C(SCC(=O)Nc2ccccc2F)N1` (centres unmarked) [RI_12], in the test on Aβ1-40, the “Aβ1-40 (% of control)” value was 68.4 % of control. The “Aβ1-42 (% of control)” value with Aβ1-42 is 82.5 % of control.

`COC(=O)C1=C(C)NC2=C(C(=O)CCC2)C1c1cccc(OC)c1` (centres unmarked) [ST013153, methyl 4-(3-methoxyphenyl)-2-methyl-5-oxo-1,4,6,7,8-pentahydroquinoline-3-carboxylate]: the activity at 5 µM worked out at 91.4% in the test on Aβ1-40 (setting [1]) and 66.3% with Aβ1-42 (setting [2]).

Regarding `CCOC(=O)C1=CN(c2ccc(C)cc2)C=C(C(=O)OCC)C1c1ccccc1OCC` [ST052284, ethyl 5-(ethoxycarbonyl)-4-(2-ethoxyphenyl)-1-(4-methylphenyl)-1,4-dihydropyridine-3-carboxylate], in the test on Aβ1-40, the “Aβ1-40 (% of control)” value was 57.71 % of control. Moreover, the “Aβ1-42 (% of control)” value with Aβ1-42 is 55.61 % of control.

For the compound `CC1=C(C(=O)Nc2ccc(Cl)cc2)C(c2cccs2)C(C#N)=C(SCC(=O)Nc2cccc(C)c2)N1` (centres unmarked) [RI_10], in the test with Aβ1-40, the “Aβ1-40 (% of control)” value was 78.8 % of control. Further, in the test on Aβ1-42, the “Aβ1-42 (% of control)” value is given as 70.6 % of control.

In the case of `COC(=O)C1=CN(C2CC2)C=C(C(=O)OC)C1c1cccc(F)c1` [ST038735, methyl 1-cyclopropyl-4-(3-fluorophenyl)-5-(methoxycarbonyl)-1,4-dihydropyridine-3-carboxylate], the “Aβ1-40 (% of control)” value with Aβ1-40 is 65.36 % of control. Besides, in the test on Aβ1-42, the “Aβ1-42 (% of control)” value is listed as 98.52 % of control.

Turning to `COc1ccc(COC(=O)C2=C(C)NC3=C(C(=O)CCC3)C2c2cccs2)cc1` (centres unmarked) [ST052371, (4-methoxyphenyl)methyl 2-methyl-5-oxo-4-(2-thienyl)-1,4,6,7,8-pentahydroquinoline-3-carboxylate], the activity at 5 µM with Aβ1-40 (setting [1]) came to 59.8%; in the test with Aβ1-42 (setting [2]), 92.5%.

Turning to `COc1ccc(COC(=O)C2=C(C)NC3=C(C(=O)CC(C)(C)C3)C2c2ccc(Cl)c([N+](=O)[O-])c2)cc1` (centres unmarked) [ST052357, (4-methoxyphenyl)methyl 4-(4-chloro-3-nitrophenyl)-2,7,7-trimethyl-5-oxo-1,4,6,7,8-pentahydroquinoline-3-carboxylate], the activity at 5 µM with Aβ1-40 (setting [1]) worked out at 13.3%; with Aβ1-42 (setting [2]), 23.4%.

In the case of `CCCOC(=O)C1=C(C)NC2=C(C(=O)CC(C)(C)C2)C1c1ccncc1` (centres unmarked) [ST017249, propyl 2,7,7-trimethyl-5-oxo-4-(4-pyridyl)-1,4,6,7,8-pentahydroquinoline-3-carboxylate], the results for the activity at 5 µM with Aβ1-40 (setting [1]) and with Aβ1-42 (setting [2]) were 67% and 75.1%, respectively.

As to `CCC(C)OC(=O)C1=C(C)NC2=C(C(=O)CC(c3ccc(OC)cc3)C2)C1c1cc2c(cc1[N+](=O)[O-])OCO2` (centres unmarked) [ST017236, methylpropyl 7-(4-methoxyphenyl)-2-methyl-4-(6-nitro(2H-benzo[d]1,3-dioxolan-5-yl))-5-oxo-1,4,6,7,8-pentahydroquinoline-3-carboxylate], the activity at 5 µM in the test on Aβ1-40 (setting [1]) is 61%; in the test on Aβ1-42 (setting [2]), 98.1%.

Consider `CC1=C(C(=O)Nc2ccc(Cl)cc2)C(c2ccccc2)C(C#N)=C(SCC(=O)Nc2ccc(C)cc2)N1` (centres unmarked) [RI_41], for which the “Aβ1-40 (% of control)” value in the test with Aβ1-40 is 36.4 % of control. Further, the “Aβ1-42 (% of control)” value in the test on Aβ1-42 is 30.7 % of control.

On to `CCOCCOC(=O)C1=C(C)NC2=C(C(=O)CC(C)(C)C2)C1c1ccc(O)c(OC)c1` (centres unmarked) [ST013343, 2-ethoxyethyl 4-(4-hydroxy-3-methoxyphenyl)-2,7,7-trimethyl-5-oxo-1,4,6,7,8-pentahydroquinoline-3-carboxylate], for which the activity at 5 µM with Aβ1-40 (setting [1]) was 61.1%; with Aβ1-42 (setting [2]), 83%.

On to `CC1=C(C(=O)Nc2ccccc2)C(c2cccs2)C(C#N)=C(SCC(=O)Nc2ccc(C(C)(C)C)cc2)N1` (centres unmarked) [RI_63], for which, in the test on Aβ1-40, the “Aβ1-40 (% of control)” value is 38.2 % of control. For the same compound, in the test with Aβ1-42, the “Aβ1-42 (% of control)” value was 38.8 % of control.

In the case of `CC1=C(C(=O)OCCOc2ccccc2)C(c2ccc(F)cc2)C2=C(CCCC2=O)N1` (centres unmarked) [ST014891, 2-phenoxyethyl 4-(4-fluorophenyl)-2-methyl-5-oxo-1,4,6,7,8-pentahydroquinoline-3-carboxylate], the figures for the activity at 5 µM with Aβ1-40 (setting [1]) and in the test with Aβ1-42 (setting [2]) were 51.8% and 39.3%, respectively.

For `CC1=C(C(=O)OCCc2ccccc2)C(c2ccccc2Br)C2=C(CC(c3ccccc3)CC2=O)N1` (centres unmarked) [ST015234, 2-phenylethyl 4-(2-bromophenyl)-2-methyl-5-oxo-7-phenyl-1,4,6,7,8-pentahydroquinoline-3-carboxylate], the activity at 5 µM in the test on Aβ1-40 (setting [1]) was 51.8%; in the test on Aβ1-42 (setting [2]) it was 54.8%.

`COCCOC(=O)C1=C(C)NC2=C(C(=O)CC(c3ccc(OC)cc3)C2)C1c1ccc(Br)cc1` (centres unmarked) [ST017099, 2-methoxyethyl 4-(4-bromophenyl)-7-(4-methoxyphenyl)-2-methyl-5-oxo-1,4,6,7,8-pentahydroquinoline-3-carboxylate]: the activity at 5 µM in the test with Aβ1-40 (setting [1]) was 84.5%; in the test with Aβ1-42 (setting [2]), 57%.

Consider `CCCCCc1c2c(C)c(C(=O)OCC)cc-2cc2n1C(C)C(C)=C2C` (centres unmarked) [ST020165, ethyl 3,6,7,8-tetramethyl-4-pentyl-6-hydropyrrolo[4,5-f]indolizine-2-carboxyla te, chloride], for which the activity at 5 µM in the test on Aβ1-40 (Table 3) was 90.9%; in the test with Aβ1-42 (Table 3, read-out: Aβ-42 (% of control)), 23.1%.

Turning to `COC(=O)C1=CN(Cc2ccc(F)cc2)C=C(C(=O)OC)C1c1ccc(Cl)cc1` [ST024836, methyl 4-(4-chlorophenyl)-1-[(4-fluorophenyl)methyl]-5-(methoxycarbonyl)-1,4-dihydropyridine-3-carboxylate], the “Aβ1-40 (% of control)” value in the test with Aβ1-40 is recorded as 26.41 % of control. In the test with Aβ1-42, the “Aβ1-42 (% of control)” value is reported as 82.55 % of control.

As for `CC1=C(C(=O)OCCOc2ccccc2)C(c2ccc(C)s2)C2=C(CCCC2=O)N1` (centres unmarked) [ST052280, 2-phenoxyethyl 2-methyl-4-(5-methyl(2-thienyl))-5-oxo-1,4,6,7,8-pentahydroquinoline-3-carboxylate], the activity at 5 µM in the test on Aβ1-40 (setting [1]) amounted to 73.6%; in the test on Aβ1-42 (setting [2]) it was 37.7%.

For `CCCOC(=O)C1=C(C)NC2=C(C(=O)CCC2)C1c1cccnc1` (centres unmarked) [ST017250, propyl 2-methyl-5-oxo-4-(3-pyridyl)-1,4,6,7,8-pentahydroquinoline-3-carboxylate], the activity at 5 µM is 28.5% with Aβ1-40 (setting [1]) and 49.2% with Aβ1-42 (setting [2]).

As to `CC1=C(C(=O)OCC(C)C)C(c2ccc(OCc3ccccc3)cc2)C2=C(CCCC2=O)N1` (centres unmarked) [ST017342, 2-methylpropyl 2-methyl-5-oxo-4-[4-(phenylmethoxy)phenyl]-1,4,6,7,8-pentahydroquinoline-3-carboxylate], the activity at 5 µM was 28.8% in the test with Aβ1-40 (setting [1]) and 93.5% in the test on Aβ1-42 (setting [2]).
